According to patent US5342841A, “Xanthine derivatives” (Kyowa Hakko Kogyo Co., Ltd., priority 1992, dated 1994):

Experiments:
[1] = test system: Male Wistar rats; assay: Diuretic activity (oral, saline-loaded rats); type: in vivo, rat; details: for Increase in K+ excretion / Increase in Na+ excretion / Increase in volume of Urine / Na+/K+: 6 hours; for Increase in K+ excretion / Increase in Na+ excretion / Increase in volume of Urine: relative to control; for Na+/K+: relative to control (1.00)
Experimental: Male Wistar rats weighing 150 to 300 g were fasted for 18 hours. A test compound and saline (25 ml/kg) were orally administered to the test rats and only saline was administered to the control rats. Then, urine was collected for 6 hours. The test was carried out using 3 groups of animals per test compound, each group consisting of 3 animals. The volume of the urine was measured by using a measuring cylinder and electrolytes (Na^+ and K^+) in the urine were assayed with a flame photometer (Model […] manufactured by Hitachi Ltd.). The parameters in Table 3 are all expressed by relative value to the control.

[2] = test system: glycerol-induced renal insufficiency in male Wistar rats; assay: Renal protecting activity (glycerol-induced renal insufficiency model), serum creatinine and urea nitrogen; type: in vivo, rat; details: i.p.; for Creatinine content in serum, test compound administered / Urea nitrogen content in serum, test compound administered: 24 hours after glycerol; for increases in creatinine content and urea nitrogen content of the serum (in words): Compound 1 at 0.1 mg/kg (p<0.001)
Experimental: Renal insufficiency is the condition that the homeostasis of body fluid is unable to be maintained by disorder of renal function. It is known that subcutaneous or intramuscular administration of glycerol to rat induces acute renal insufficiency characterized by renal tubular disturbance [Can. J. Physiol.
(§1) Male Wistar rats were fisted from both food and water for 18 hours. A test compound or saline (control) was intraperitoneally administered to the rats. After 30 minutes, the rats were anesthesized with ether and the back skin was picked up and 0.8 ml/100 g of 50% glycerol was subcutaneously administered. Twenty four hours after the glycerol injection, the rats were anesthesized with ether and 5 ml of the blood was collected from the descending aorta. After being allowed to stand for 30 minutes or longer, the blood sample was centrifuged at 3000 rpm for 10 minutes to obtain the serum. Creatinine in the serum sample was determined using autoanalyzer (AU510, Olympus Optical Co., Ltd.) or clinical analysis kit of creatinine (Creatinine Test Wako; by Wako Pure Chemical Ind., Japan). Urea nitrogen in the serum was determined using autoanalyzer (AU510; made by Olympus Optical Co., Ltd.) or clinical analysis kit of urea nitrogen (Urea Nitrogen Test Wako; by Wako Pure Chemical Ind., Japan).
Test of the significance between the control group and the test compound-administered group was performed by the Student's t-test (n=8 to 10).

[3] = target: T1, Adenosine A2 receptor (Rattus norvegicus, UniProt P30543); assay: Adenosine A2 receptor binding test (3H-NECA); details: for Ki: 3H-NECA, CPA 50 nM, rat corpus striatum; for inhibition at 10 µM / inhibition at 100 µM: read-out: A2 Receptor Inhibition (%)
T1 construct: using rat corpus striatum to prepare the final precipitate; from tissue; host or cells: rat corpus striatum membranes
Experimental: The similar procedure as in 1) above was repeated using rat corpus striatum to prepare the final precipitate. The precipitate was suspended in 50 mM Tris HCl buffer containing 10 mM magnesium chloride and 0.02 unit/mg tissue of adenosine deaminase (manufactured by Sigma Co.) to give a tissue concentration of 5 mg (wet weight)/ml.
To 1 ml of the thus prepared tissue suspension were added 50 μl of a mixture of N-ethylcarboxamidoadenosine labeled with tritium [^3 H-NECA, 26 Ci/mmol, manufactured by Amersham Co.] […] (final concentration: 50 nM), and 50 μl of a test compound. The mixture was allowed to stand at 25° C. for 120 minutes and then treated in the same manner as in 1) above to determine the radioactivity.
The inhibition rate of the test compound against the binding of A2 receptor (^3 H-NECA binding) was calculated by the following equation: [formula]
2. "T" means the radioactivity of ^3 H-NECA bound in the absence of a test compound.
3. "N" means the radioactivity of ^3 H-NECA bound in the presence of 100 μM CPA.
The Ki value shown in the table was calculated by the following equation: [formula]
L: Concentration of ^3 H-NECA
Kd: Dissociation constant of ^3 H-NECA
Kc: Inhibition constant of CPA

[4] = test system: left kidneys of male Wistar rats with glycerol-induced renal insufficiency; assay: Pathological examination of removed kidneys (glycerol-induced renal insufficiency model); type: in vivo, rat
Experimental: as §1
Further, the left kidneys were taken out from the animals of the test compound-treated groups and the control groups to prepare pathological samples.

[5] = target: T2, Adenosine A1 receptor (Cavia porcellus, UniProt P47745); assay: Adenosine A1 receptor binding (3H-CHA); details: guinea pig cerebrum; for Ki: 3H-CHA, Cheng-Prusoff's equation; for inhibition at 100 µM: 10^-4 M test compound; for inhibition at 100 µM / inhibition at 10 µM: 3H-CHA 1.1 nM; for inhibition at 10 µM: 10^-5 M test compound
T2 construct: from tissue; host or cells: guinea pig cerebrum membranes
T2 sequence (P47745 1-326): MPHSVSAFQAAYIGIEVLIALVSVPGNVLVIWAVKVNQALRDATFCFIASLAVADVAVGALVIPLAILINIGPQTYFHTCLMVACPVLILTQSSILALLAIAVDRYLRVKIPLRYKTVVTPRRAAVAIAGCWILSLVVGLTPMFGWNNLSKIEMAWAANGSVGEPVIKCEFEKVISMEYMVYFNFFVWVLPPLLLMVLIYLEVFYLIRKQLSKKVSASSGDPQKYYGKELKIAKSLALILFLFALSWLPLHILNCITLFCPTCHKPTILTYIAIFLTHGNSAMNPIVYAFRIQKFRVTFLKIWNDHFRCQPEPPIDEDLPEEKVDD
Experimental: This test was conducted according to the method of Bruns et al. [Proc. Natl. Acad. Sci., 77, 5547 (1980)] with slight modification.
Cerebrum of a guinea pig was suspended in ice cooled 50 mM Tris hydroxymethyl aminomethane hydrochloride (Tris HCl) buffer (pH 7.7) by using Polytron homogenizer (manufactured by Kinematicas Co.). The suspension was centrifuged (50,000×g, 10 minutes), and the precipitate was suspended again in the same amount of 50 mM Tris HCl buffer. The suspension was centrifuged under the same conditions, and the precipitate obtained was suspended once again in 50 mM Tris HCl buffer to give a tissue concentration of 100 mg (wet weight)/ml. The tissue suspension was incubated at 37° C. for 30 minutes in the presence of 0.02 unit/mg tissue of adenosine deaminase (manufactured by Sigma Co.). The tissue suspension was then centrifuged (50,000×g, 10 minutes), and 50 mM Tris HCl buffer was added to the precipitate to adjust the concentration of tissue to 10 mg (wet weight)/ml.
To 1 ml of the thus prepared tissue suspension were added 50 μl of cyclohexyladenosine labeled with tritium [^3 H-CHA, 27 Ci/mmol, manufactured by New England Nuclear Co.] (final concentration: 1.1 nM) and 50 μl of a test compound. The mixture was allowed to stand at 25° C. for 90 minutes and then rapidly filtered by suction through a glass fiber filter (GF/C manufactured by Whatman Co.). The filter was immediately washed three times with 5 ml each of ice cold 50 mM Tris HCl buffer, and transferred to a vial, and a scintillator (EX-H by Wako Pure Chemical Industries, Ltd.) was added thereto. The radioactivity on the filter was determined with a scintillation counter (manufactured by Packard Instrument Co.).
The inhibition rate of the test compound against the binding of A1 receptor (^3 H-CHA binding) was calculated by the following equation: [formula]
2. "T" means the radioactivity of ^3 H-CHA bound in the absence of a test compound.
3. "N" means the radioactivity of ^3 H-CHA bound in the presence of 10 μM N^6 -(L-2-phenylisopropyl)adenosine (manufactured by Sigma Co.).
The inhibition constant (Ki value) shown in the table was calculated by the Cheng-Prusoff's equation.

[6] = 1 mg/kg, control 4.53 ± 0.19, *** P < 0.001, ** P < 0.01
[7] = 1 mg/kg, control 193.6 ± 6.4, *** P < 0.001, ** P < 0.01

T1 sequence (P30543 whole entry): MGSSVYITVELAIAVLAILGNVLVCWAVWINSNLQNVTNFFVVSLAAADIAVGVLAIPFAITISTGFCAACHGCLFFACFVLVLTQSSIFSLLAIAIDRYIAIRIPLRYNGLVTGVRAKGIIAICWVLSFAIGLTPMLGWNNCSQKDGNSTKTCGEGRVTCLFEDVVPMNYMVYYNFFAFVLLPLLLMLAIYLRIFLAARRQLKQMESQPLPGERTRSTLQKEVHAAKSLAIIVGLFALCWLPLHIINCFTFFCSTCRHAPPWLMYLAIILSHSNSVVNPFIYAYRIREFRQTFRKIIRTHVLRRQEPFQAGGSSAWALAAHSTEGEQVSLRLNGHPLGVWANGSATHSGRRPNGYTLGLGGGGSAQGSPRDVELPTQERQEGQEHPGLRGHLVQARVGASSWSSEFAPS

SMILES: Cn1c(=O)c2[nH]cnc2n(C)c1=O [Aminophylline, reference compound]
- Increase in K+ excretion ([1]; 25 mg/kg): 17%
- Increase in Na+ excretion ([1]; 25 mg/kg): 89%
- Increase in volume of Urine ([1]; 25 mg/kg): 34%
- Na+/K+ ([1]; 25 mg/kg): 1.62
- Creatinine content in serum, test compound administered ([2]; 10 mg/kg, control 5.43 ± 0.11, no significance mark): 5.32 ± 0.19 mg/dL
- Urea nitrogen content in serum, test compound administered ([2]; 10 mg/kg, control 182.5 ± 3.4, no significance mark): 174.0 ± 10.4 mg/dL
- increases in creatinine content and urea nitrogen content of the serum (in words) ([2]; conclusion from Table 4): weak effect

SMILES: O=c1c2[nH]c(C34CC5CC(CC3C5)C4)nc2n(CC2CC2)c(=O)n1CC1CC1 [Compound 1, 1,3-Bis(cyclopropylmethyl)-8-(3-noradamantyl)xanthine]
- Ki [3]: > 10000 nM
- inhibition at 10 µM [3]: 49%
- inhibition at 100 µM [3]: 70%
- Increase in K+ excretion ([1]; 0.1 mg/kg): 9%
- Increase in Na+ excretion ([1]; 0.1 mg/kg): 146%
- Increase in volume of Urine ([1]; 0.1 mg/kg): 184%
- Na+/K+ ([1]; 0.1 mg/kg): 2.25
- Na+ diuretic action ([1]; conclusion in words from Table 3): potent
- state of kidneys (pathological examination) [4]: significantly improved
- Ki [5]: 1.9 nM
- inhibition at 100 µM [5]: 101%
- inhibition at 10 µM [5]: 99%
- Creatinine content in serum, test compound administered ([2]; 0.1 mg/kg, control 4.53 ± 0.19, *** P < 0.001): 2.52 ± 0.24 mg/dL
- Creatinine content in serum, test compound administered ([2]; 0.1 mg/kg, control 4.86 ± 0.12, *** P < 0.001): 1.97 ± 0.21 mg/dL
- Urea nitrogen content in serum, test compound administered ([2]; 0.1 mg/kg, control 152.6 ± 4.1, *** P < 0.001): 61.3 ± 8.7 mg/dL
- Urea nitrogen content in serum, test compound administered ([2]; 0.1 mg/kg, control 193.6 ± 6.4, *** P < 0.001): 109.4 ± 12.8 mg/dL
- Creatinine content in serum, test compound administered [2, 6]: 2.23 ± 0.30 mg/dL
- Urea nitrogen content in serum, test compound administered [2, 7]: 97.2 ± 13.6 mg/dL
- increases in creatinine content and urea nitrogen content of the serum (in words) ([2]; conclusion from Table 4): significantly suppressed

SMILES: O=c1c2[nH]c(C(C3CC3)C3CC3)nc2n(CC2CC2)c(=O)n1CC1CC1 [Compound 2, 1,3-Bis(cyclopropylmethyl)-8-dicyclopropylmethylxanthine]
- Ki [3]: 210 nM
- inhibition at 10 µM [3]: 93%
- inhibition at 100 µM [3]: 100%
- Increase in K+ excretion ([1]; 1.6 mg/kg): 4%
- Increase in Na+ excretion ([1]; 1.6 mg/kg): 49%
- Increase in volume of Urine ([1]; 1.6 mg/kg): 43%
- Na+/K+ ([1]; 1.6 mg/kg): 1.44
- Ki [5]: 2.7 nM
- inhibition at 100 µM [5]: 101%
- inhibition at 10 µM [5]: 100%

SMILES: O=c1c2[nH]c(C34CC5CC(CC3C5)C4)nc2n(C2CC2)c(=O)n1C1CC1 [Compound 3, 1,3-Dicyclopropyl-8-(3-noradamantyl)xanthine]
- Ki [3]: 1300 nM
- inhibition at 10 µM [3]: 78%
- inhibition at 100 µM [3]: 103%
- Increase in K+ excretion ([1]; 0.1 mg/kg): 0%
- Increase in Na+ excretion ([1]; 0.1 mg/kg): 52%
- Increase in volume of Urine ([1]; 0.1 mg/kg): 48%
- Na+/K+ ([1]; 0.1 mg/kg): 1.52
- Increase in K+ excretion ([1]; 1.6 mg/kg): 8%
- Increase in Na+ excretion ([1]; 1.6 mg/kg): 118%
- Increase in volume of Urine ([1]; 1.6 mg/kg): 93%
- Na+/K+ ([1]; 1.6 mg/kg): 2.02
- Ki [5]: 38 nM
- inhibition at 100 µM [5]: 98%
- inhibition at 10 µM [5]: 99%

SMILES: O=c1c2[nH]c(C(C3CC3)C3CC3)nc2n(C2CC2)c(=O)n1C1CC1 [Compound 4, 1,3-Dicyclopropyl-8-dicyclopropylmethylxanthine]
- Ki [3]: 2400 nM
- inhibition at 10 µM [3]: 104%
- inhibition at 100 µM [3]: 108%
- Increase in K+ excretion ([1]; 1.6 mg/kg): 18%
- Increase in Na+ excretion ([1]; 1.6 mg/kg): 54%
- Increase in volume of Urine ([1]; 1.6 mg/kg): 54%
- Na+/K+ ([1]; 1.6 mg/kg): 1.31
- Ki [5]: 42 nM
- inhibition at 100 µM [5]: 99%
- inhibition at 10 µM [5]: 99%
- Creatinine content in serum, test compound administered [2, 6]: 2.55 ± 0.43 mg/dL
- Urea nitrogen content in serum, test compound administered [2, 7]: 108.5 ± 16.8 mg/dL

SMILES: NS(=O)(=O)c1cc(C(=O)O)c(NCc2ccco2)cc1Cl [Furosemide, reference compound]
- Increase in volume of Urine ([1]; 25 mg/kg): 75%
- Na+/K+ ([1]; 25 mg/kg): 1.07
- Creatinine content in serum, test compound administered ([2]; 10 mg/kg, control 3.22 ± 0.35, no significance mark): 4.17 ± 0.41 mg/dL
- Urea nitrogen content in serum, test compound administered ([2]; 10 mg/kg, control 110.7 ± 9.4, * P < 0.05): 150.3 ± 13.7 mg/dL
- serum creatinine (in words) ([2]; conclusion from Table 4): tendency to increase the serum creatinine
